Calls of active or inactive are those of the source.
Experiments:
[1] = target: T1, Short transient receptor potential channel 4 (Mus musculus, UniProt Q9QUQ5); test: mouse TRPC4 channel inhibitors, dose response, cell-based, HEK293 TRPC4/mu-opioid, Fluo-4 calcium (AID 434942); type: functional;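 also: potency of inhibitors blocking the TRPC4 calcium response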
T1 sequence (Q9QUQ5 whole entry): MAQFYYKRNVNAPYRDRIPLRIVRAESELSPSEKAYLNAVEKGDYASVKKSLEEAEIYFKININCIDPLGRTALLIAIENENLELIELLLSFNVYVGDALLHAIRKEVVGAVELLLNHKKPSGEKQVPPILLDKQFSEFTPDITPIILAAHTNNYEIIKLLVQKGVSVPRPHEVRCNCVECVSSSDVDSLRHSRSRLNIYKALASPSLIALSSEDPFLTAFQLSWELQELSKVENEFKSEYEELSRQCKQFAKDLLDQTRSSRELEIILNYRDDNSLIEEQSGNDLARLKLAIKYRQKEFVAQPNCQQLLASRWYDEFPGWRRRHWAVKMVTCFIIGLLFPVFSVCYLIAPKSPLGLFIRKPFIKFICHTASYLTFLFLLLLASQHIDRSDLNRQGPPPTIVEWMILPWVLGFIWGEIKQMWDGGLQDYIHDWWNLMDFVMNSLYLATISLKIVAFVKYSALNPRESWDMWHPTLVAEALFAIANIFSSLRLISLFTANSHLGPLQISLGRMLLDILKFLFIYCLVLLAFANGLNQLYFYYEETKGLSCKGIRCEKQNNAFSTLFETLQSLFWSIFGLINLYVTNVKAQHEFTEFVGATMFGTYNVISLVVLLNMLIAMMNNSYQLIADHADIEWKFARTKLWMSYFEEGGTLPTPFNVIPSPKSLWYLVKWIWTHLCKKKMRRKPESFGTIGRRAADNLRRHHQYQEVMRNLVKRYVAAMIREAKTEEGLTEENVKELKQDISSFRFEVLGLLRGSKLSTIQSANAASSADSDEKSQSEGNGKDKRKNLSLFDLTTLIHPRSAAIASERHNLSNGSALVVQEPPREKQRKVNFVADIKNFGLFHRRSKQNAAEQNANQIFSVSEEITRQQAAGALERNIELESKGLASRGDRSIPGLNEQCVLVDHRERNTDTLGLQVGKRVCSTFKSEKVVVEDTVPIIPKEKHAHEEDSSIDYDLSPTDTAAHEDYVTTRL

[2] = target: 5-hydroxytryptamine receptor 5A (Homo sapiens, UniProt P47898); test: Counterscreen for agonists of OPRM1-OPRD1 heterodimerization: luminescence-based cell-based high throughput dose response assay to identify agonists of 5-hydroxytryptamine (serotonin) 5A receptor (HTR5A). [Related pubchem assays (depositor defined):AID504326, AID504355, AID504692, AID504904, AID504905]; type: functional
Chain of 5-hydroxytryptamine receptor 5A (P47898 whole entry): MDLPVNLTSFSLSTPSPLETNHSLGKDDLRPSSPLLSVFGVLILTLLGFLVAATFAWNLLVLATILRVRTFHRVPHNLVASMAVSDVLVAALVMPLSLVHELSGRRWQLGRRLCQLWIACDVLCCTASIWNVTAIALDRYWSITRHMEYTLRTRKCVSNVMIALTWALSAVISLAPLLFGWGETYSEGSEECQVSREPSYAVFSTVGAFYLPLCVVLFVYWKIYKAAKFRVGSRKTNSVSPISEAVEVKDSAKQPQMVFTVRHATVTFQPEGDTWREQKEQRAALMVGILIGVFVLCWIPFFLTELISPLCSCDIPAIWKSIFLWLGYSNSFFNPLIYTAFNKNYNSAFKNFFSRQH

[3] = target: Mu-type opioid receptor (Homo sapiens, UniProt P35372); test: (§1) Counterscreen for agonists of heterodimerization of the mu 1 (OPRM1) and delta 1 (OPRD1) opioid receptors: Luminescence-based cell-based high throughput dose response assay to identify agonists of OPRM1 homodimerization.; type: functional
Chain of Mu-type opioid receptor (P35372 whole entry): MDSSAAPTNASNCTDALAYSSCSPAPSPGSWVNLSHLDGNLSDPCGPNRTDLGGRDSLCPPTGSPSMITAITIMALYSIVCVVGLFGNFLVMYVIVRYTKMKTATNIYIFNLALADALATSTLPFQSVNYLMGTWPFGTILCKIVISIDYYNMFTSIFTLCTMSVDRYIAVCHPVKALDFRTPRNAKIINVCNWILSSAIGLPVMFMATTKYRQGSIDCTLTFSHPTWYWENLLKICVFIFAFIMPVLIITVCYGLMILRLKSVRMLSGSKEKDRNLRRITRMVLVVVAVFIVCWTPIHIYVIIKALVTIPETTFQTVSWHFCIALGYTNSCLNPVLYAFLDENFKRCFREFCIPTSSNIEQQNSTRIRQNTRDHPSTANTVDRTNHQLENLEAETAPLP

[4] = target: Delta-type opioid receptor (Homo sapiens, UniProt P41143); test: as §1, with “of OPRD1” for “of OPRM1”, “homodimerization. [Related pubchem assays (depositor defined):AID504326, AID504355, AID504692, AID504904, AID504905]” for “homodimerization.”; type: functional
Chain of Delta-type opioid receptor (P41143 whole entry): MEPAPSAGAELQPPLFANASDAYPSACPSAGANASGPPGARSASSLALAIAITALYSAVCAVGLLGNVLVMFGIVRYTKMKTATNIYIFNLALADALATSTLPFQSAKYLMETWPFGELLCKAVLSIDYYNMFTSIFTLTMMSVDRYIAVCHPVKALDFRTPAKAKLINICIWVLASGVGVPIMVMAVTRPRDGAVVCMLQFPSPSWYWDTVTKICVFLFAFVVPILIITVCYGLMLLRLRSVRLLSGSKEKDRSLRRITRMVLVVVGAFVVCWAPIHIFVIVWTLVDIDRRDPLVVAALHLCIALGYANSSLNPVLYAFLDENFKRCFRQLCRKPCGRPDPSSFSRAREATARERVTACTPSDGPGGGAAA

[5] = test system: HEK293; test: cells; type: functional, cell-based; details: Homo sapiens
[6] = test system: HEK293; test: cells; type: functional, cell-based; details: Homo sapiens; remark: listed apart in the source
[7] = test system: HEK293; test: NOD2 signaling inhibitors in MDP-stimulated cells, cell-based, uHTS, luminescence (AID 2001); type: functional; details: Homo sapiens
[8] = target: Nucleotide-binding oligomerization domain-containing protein 2 (Homo sapiens, UniProt Q9HC29); test: NOD2 signaling inhibitors, cell-based, luminescence, uHTS, HEK293 (AID 1566); type: functional
Chain of Nucleotide-binding oligomerization domain-containing protein 2 (Q9HC29 whole entry, the tested form may be a part): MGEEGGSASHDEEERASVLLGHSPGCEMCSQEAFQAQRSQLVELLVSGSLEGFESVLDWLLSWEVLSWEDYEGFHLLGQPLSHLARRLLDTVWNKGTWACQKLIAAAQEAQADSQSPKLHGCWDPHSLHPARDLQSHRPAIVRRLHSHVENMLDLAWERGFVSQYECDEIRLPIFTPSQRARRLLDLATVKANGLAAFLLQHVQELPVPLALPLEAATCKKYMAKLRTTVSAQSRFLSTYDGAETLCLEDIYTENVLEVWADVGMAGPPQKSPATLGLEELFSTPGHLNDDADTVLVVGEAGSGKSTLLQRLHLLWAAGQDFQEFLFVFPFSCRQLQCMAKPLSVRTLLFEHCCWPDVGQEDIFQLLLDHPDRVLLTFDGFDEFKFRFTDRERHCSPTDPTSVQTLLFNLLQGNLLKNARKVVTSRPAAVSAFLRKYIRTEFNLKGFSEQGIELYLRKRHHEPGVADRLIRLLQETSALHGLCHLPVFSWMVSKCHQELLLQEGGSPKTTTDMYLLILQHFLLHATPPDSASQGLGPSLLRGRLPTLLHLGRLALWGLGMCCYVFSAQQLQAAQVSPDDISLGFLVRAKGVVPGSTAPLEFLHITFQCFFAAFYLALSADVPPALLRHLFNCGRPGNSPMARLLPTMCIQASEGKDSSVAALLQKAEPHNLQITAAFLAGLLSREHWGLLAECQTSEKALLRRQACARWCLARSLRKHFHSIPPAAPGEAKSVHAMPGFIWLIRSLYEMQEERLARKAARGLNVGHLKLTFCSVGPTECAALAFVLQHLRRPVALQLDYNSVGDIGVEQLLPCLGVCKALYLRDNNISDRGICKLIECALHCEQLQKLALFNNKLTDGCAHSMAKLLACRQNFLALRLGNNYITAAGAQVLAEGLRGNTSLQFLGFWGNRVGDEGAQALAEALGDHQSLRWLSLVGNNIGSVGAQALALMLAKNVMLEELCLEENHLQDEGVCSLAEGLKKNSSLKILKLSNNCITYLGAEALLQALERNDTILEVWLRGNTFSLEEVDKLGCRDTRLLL

[9] = test system: HEK293; test: cells; type: functional, cell-based; details: Homo sapiens; remark: listed apart in the source
[10] = test system: HEK293; test: NOD1 signaling inhibitors, primary screen, cell-based, luminescence, uHTS (AID 1578); type: functional; details: Homo sapiens
[11] = target: Nucleotide-binding oligomerization domain-containing protein 1 (Homo sapiens, UniProt Q9Y239); test: NOD1 signaling inhibitors, SAR follow-up, revised (AID 2333); type: functional
Chain of Nucleotide-binding oligomerization domain-containing protein 1 (Q9Y239 whole entry, the tested form may be a part): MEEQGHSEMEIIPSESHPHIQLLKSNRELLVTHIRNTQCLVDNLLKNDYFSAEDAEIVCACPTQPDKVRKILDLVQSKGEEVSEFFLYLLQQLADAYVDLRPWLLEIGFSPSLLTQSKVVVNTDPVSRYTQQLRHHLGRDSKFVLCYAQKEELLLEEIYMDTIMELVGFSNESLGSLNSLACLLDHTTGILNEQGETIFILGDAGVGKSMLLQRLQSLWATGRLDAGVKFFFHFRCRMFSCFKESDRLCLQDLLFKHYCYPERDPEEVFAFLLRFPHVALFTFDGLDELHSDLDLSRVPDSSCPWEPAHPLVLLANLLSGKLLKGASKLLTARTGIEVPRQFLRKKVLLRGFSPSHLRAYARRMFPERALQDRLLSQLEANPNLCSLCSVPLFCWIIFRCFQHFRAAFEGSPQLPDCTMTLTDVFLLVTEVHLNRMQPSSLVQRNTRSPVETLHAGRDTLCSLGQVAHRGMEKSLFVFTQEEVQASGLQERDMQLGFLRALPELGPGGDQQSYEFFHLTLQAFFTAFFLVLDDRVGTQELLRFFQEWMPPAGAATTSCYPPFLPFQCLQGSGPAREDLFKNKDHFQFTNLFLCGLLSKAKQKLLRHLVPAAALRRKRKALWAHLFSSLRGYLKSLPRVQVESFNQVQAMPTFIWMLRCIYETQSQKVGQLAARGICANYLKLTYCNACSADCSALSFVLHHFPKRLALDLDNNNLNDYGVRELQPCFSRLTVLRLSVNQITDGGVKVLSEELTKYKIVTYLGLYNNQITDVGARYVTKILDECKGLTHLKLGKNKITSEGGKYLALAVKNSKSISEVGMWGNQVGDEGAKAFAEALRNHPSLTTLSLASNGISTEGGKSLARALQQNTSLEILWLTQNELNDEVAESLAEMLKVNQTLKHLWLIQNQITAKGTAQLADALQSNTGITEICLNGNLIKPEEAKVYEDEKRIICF

[12] = test system: HEK293; test: cells; details: Homo sapiens
[13] = target: T2, Corticotropin-releasing factor receptor 2/Corticotropin-releasing factor-binding protein (Homo sapiens, UniProt P24387+Q13324); test: activators of CRF receptor 2 with binding protein – uHTS hits, confirmation (AID 602473); type: functional; details: read-out: EC50_Mean
T2 sequence (Q13324 whole entry): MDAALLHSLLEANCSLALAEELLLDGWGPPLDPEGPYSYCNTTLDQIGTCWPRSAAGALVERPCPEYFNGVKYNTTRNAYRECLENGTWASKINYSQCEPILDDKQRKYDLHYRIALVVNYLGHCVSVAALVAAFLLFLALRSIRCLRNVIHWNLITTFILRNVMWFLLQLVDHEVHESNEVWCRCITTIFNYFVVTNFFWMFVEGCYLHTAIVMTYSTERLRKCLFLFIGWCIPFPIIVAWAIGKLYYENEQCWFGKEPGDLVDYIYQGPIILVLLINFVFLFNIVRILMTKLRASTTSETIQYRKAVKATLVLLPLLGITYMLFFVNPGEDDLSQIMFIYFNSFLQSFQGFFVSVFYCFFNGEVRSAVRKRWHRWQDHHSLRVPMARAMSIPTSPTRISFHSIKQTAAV
T2 sequence (P24387 whole entry): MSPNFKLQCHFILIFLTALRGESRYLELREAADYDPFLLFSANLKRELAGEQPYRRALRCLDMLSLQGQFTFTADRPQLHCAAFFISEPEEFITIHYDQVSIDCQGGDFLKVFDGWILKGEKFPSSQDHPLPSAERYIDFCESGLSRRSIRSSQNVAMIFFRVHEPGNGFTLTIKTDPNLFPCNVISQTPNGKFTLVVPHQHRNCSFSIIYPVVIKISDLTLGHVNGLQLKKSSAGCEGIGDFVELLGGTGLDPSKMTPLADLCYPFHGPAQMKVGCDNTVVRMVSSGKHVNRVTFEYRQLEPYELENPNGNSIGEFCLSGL

[14] = CRF-BP/CRF-R2 complex antagonists, dose response, cell-based, uHTS hits, 384-well (AID 651639); type: functional, Homo sapiens; details: read-out: IC50_Mean
[15] = target: T2, Corticotropin-releasing factor receptor 2/Corticotropin-releasing factor-binding protein; test: Dose Response confirmation of uHTS hits for small molecule antagonists of the CRF-binding protein and CRF-R2 receptor complex.; type: functional; details: read-out: IC50_Mean
[16] = target: Tumor necrosis factor (Homo sapiens, UniProt P01375); test: TNFa-triggered NF-kB activation inhibitors, SAR follow-up, cell-based, revised (AID 2337); type: functional
Chain of Tumor necrosis factor (P01375 whole entry): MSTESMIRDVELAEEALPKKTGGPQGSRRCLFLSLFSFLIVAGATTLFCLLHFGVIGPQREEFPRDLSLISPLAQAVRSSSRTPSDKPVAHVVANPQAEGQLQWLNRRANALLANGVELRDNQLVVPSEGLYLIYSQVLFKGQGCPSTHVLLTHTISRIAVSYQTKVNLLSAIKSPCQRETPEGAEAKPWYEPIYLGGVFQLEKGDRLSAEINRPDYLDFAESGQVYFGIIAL

[17] = target: DNA topoisomerase (Yersinia pestis, UniProt A0A2S9PM60); test: Y. pestis Topo-I inhibitors, cleavage product readout, dose response, biochemical, cherry-pick (AID 588525)
Chain of DNA topoisomerase (A0A2S9PM60 whole entry): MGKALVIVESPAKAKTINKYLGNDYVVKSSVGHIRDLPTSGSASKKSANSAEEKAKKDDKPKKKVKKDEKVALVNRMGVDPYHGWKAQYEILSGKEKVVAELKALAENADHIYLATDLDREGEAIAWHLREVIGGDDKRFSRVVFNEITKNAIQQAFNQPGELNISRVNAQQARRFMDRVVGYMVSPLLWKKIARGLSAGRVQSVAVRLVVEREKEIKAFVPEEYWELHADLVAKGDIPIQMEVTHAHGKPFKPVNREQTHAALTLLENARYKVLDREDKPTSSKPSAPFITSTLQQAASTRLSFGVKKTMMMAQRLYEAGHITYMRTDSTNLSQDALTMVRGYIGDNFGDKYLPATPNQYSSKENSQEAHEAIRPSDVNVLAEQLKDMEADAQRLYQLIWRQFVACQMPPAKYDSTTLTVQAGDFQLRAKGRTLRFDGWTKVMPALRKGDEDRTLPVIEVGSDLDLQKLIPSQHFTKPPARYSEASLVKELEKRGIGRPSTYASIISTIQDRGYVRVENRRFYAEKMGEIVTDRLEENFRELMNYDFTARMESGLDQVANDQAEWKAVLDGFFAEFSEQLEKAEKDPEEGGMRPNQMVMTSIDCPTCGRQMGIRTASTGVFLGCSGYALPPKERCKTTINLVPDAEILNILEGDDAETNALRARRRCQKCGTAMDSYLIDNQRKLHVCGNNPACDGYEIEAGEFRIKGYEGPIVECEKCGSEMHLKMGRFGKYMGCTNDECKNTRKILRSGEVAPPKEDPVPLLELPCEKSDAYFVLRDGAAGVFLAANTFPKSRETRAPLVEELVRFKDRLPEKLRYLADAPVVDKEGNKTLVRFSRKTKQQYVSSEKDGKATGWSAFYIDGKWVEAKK

[18] = inhibitors of intracellular T. cruzi replication, confirmation, NIH3T3 host cells, beta-gal luminescence (AID 2044); type: functional, cell-based;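 also: intracellular parasites grown in NIH/3T3 mouse fibroblasts as host cells; luminescent beta-galactosidase reporter signal from transgenic T. cruzi replicating inside host cells; inhibitors lower the luminescence signal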
[19] = target: Dual specificity tyrosine-phosphorylation-regulated kinase 1A (Rattus norvegicus, UniProt Q63470); type: biochemical, Homo sapiens
[20] = target: ADP-ribosylation factor GTPase-activating protein 1 (Rattus norvegicus, UniProt Q62848); test: Fluorescence polarization-based biochemical high throughput dose response screening assay to identify inhibitors of ADP-ribosylation factor GTPase activating protein 1 (ARFGAP1).; type: functional
Chain of ADP-ribosylation factor GTPase-activating protein 1 (Q62848 whole entry): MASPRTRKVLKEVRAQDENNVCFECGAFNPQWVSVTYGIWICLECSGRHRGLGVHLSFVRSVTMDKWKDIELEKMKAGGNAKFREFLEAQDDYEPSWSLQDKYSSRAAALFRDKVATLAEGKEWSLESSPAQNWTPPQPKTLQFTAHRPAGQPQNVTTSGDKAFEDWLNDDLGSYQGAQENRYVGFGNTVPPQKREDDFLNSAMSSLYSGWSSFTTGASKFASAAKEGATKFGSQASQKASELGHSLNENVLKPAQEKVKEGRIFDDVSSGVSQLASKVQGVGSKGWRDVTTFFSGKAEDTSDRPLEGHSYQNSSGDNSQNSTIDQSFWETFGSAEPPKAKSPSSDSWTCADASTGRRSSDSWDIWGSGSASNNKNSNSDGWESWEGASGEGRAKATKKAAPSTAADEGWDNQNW

[21] = cytotoxicity toward NIH3T3 fibroblasts, dose response, counter-screen, cell-based, ATP luminescence, mouse fibroblasts (AID 2010); type: functional;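 also: cells exposed to compound for about 90 hours before reading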

O=C(OC1C2CCC1C1CN(CCc3ccccc3)CC12)c1ccccc1 (stereo unspecified)
inactive: EC50 [2] > 92.5 µM | EC50 [3] > 92.5 µM | EC50 [4] > 92.5 µM
active: EC50 [1] 3.35 µM

Cc1nc(N2CCN(c3ccccn3)CC2)c2c(C)c(C(=O)N3CCN(c4ccc(F)cc4)CC3)sc2n1
active: EC50 [1] 1.19 µM | IC50 [6] 17.1 µM | IC50 [7] 6.95 µM | EC50 [8] 5.26 µM | IC50 [9] 6.02 µM | EC50 [10] 6.14 µM
inactive: IC50 [5] > 20 µM | EC50 [2] > 92.4 µM | EC50 [3] 10.8 µM | EC50 [4] > 92.4 µM

CC1CCN(S(=O)(=O)c2nnc(NC(=O)c3cccc(Cl)c3)s2)CC1
active: IC50 [11] 5.14 µM | IC50 [7] 9.2 µM | IC50 [12] 17.2 µM | EC50 [8] 16.8 µM | IC50 [9] 11.1 µM | IC50 [15] 14.6 µM | IC50 [16] 6.64 µM | EC50 [10] 2.64 µM
inactive: IC50 [5] > 20 µM | IC50 [6] > 20 µM | EC50 [13] > 53 µM | IC50 [14] > 20 µM

Nc1cc(O)nc(SCC(=O)N2N=C(c3ccc4ccccc4c3)CC2c2ccccc2)n1 (stereo unspecified)
active: AC50 [17] 16.1 µM

O=C(/C=C/c1ccccc1)Nc1nc(-c2ccncc2)cs1
active: EC50 [18] 0.843 µM | AC50 [19] 0.103 µM | EC50 [21] 17.6 µM
inactive: IC50 [20] 28.8 µM

From ChEMBL document CHEMBL1201862, “PubChem BioAssay data set” (2004)
